# Where “and” joins values, the source holds several entries; their conditions need not be identical. Equal entries are not always repeated. Where two headings read alike, the source gives them in different places.
# Key:
# MCT1 (F360C) = MCT1 (F360C) (UniProt P36035+P53987, F360C); experiment: Growth with lactate as sole carbon source, by4741 Δjen1 expressing MCT1(F360C); conditions: for growth curve reading, single replicate / growth curve reading, mean of 4 replicates: Δjen1 MCT1(F360C)
# Experimental: (§1) Yeast was propagated, transformed, and assayed in synthetic complete media. Synthetic media was composed of 1.5 g Difco yeast nitrogen base without amino acids and ammonium sulfate, 5 g ammonium sulfate, 200 μM inositol, and 2 g amino acid powder mix per liter. For all studies using MCT1, uracil was excluded to maintain plasmid selection. The carbon source for most experiments was 2% glucose; however, for growth in alternative carbon sources lactate (0.5% v/v) or pyruvate (40 mM) was used instead with media pH adjustment to 5.0.
# (§2) For growth in lactate or pyruvate as a sole carbon source by4741 and an equivalent strain with a JEN1 knockout was obtained from the nonessential gene deletion library [62].
# (§3) Supplementary file pone.0312492.s005.tif: S5 Fig Growth of the optimal MCT1 fusion in lactate and sensitivity to AZD3965 administration. […] AZD3965 was added to the media at a concentration of 10 μM.
# MCT1 (wildtype) = MCT1 (wildtype) (UniProt P36035+P53987); experiment: Growth with lactate as sole carbon source, by4741 Δjen1 expressing wild-type MCT1
# Experimental: as §1, §2, §3
# [1] = patients with advanced cancer; dose-limiting toxicity relating to retinopathy at higher concentrations; cited from earlier work
# Δjen1 EV = experiment: Growth with lactate as sole carbon source, Δjen1 carrying empty vector (EV) control; format: cell-based, Saccharomyces cerevisiae
# MCT1 = conditions: cited from earlier work
# SAWy710 (EV) = experiment: High throughput assay validation, empty vector (EV) control strain SAWy710, AZD versus DMSO; format: cell-based, Saccharomyces cerevisiae; conditions: individual wells 1-16, listed as AZD
# [2] = target: neurokinin 1 (NK1) receptor; parameters: method as in not given; conditions: library annotation; ref not given; cited from earlier work
# parent strain (SAWy518) [3] = system: parent strain (SAWy518)
# parent strain (SAWy518) [4] = experiment: microbe, parasite or virus in culture; parameters: species or system Saccharomyces cerevisiae SAWy518; Off-target growth counter-screen, OD600 as per cent of untreated wells, strain lacking MCT1; conditions: 18.5 h; sheet Primary Screen - final;; off-target growth of parent strain, about 18 h
# [5] = target: neurokinin 1 (NK1) receptor; conditions: library annotation; cited from earlier work
# [6] = target: neurokinin 1 (NK1) receptor; conditions: library annotation; cited from earlier work; remark: listed apart in the source
# MCT4 [7] = conditions: HAP1 cells, library annotation; cited from earlier work
# cancer cell growth = conditions: 10 μM, administered alone; cited from earlier work
# tumor growth = conditions: cited from earlier work
# MCT4 [8] = conditions: HAP1 cells; NOTES column annotation; cited from earlier work
# survivin [9] = conditions: library annotation; cited from earlier work
# survivin [10] = conditions: NOTES column annotation; cited from earlier work
# survivin [11] = conditions: library annotation; cited from earlier work; remark: listed apart in the source
# Chain of MCT1 (F360C) (P36035+P53987 fused P53987:F360C): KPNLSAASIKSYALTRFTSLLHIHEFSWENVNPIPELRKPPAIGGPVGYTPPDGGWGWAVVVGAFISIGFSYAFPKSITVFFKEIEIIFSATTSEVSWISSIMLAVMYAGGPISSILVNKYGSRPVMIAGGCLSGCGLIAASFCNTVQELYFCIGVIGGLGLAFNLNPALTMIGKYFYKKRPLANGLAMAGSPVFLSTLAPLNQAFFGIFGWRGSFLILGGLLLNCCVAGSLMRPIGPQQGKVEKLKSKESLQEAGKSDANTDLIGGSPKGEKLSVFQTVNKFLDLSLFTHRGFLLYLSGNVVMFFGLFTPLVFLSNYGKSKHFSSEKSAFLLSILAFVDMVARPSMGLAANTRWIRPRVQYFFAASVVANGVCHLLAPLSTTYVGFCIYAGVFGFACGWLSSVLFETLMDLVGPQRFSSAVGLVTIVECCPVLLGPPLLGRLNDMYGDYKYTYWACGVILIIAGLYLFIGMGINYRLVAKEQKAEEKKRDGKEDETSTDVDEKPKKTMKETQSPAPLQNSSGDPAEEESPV
# Chain of MCT1 (wildtype) (P36035+P53987 fused): as the sequence (P36035+P53987 fused P53987:F360C) above, with C398F counted along it
compound,measurement,setting,value
Cc1[nH]nc(C(F)(F)F)c1Cc1sc2c(c1C(=O)N1C[C@](C)(O)CO1)c(=O)n(C)c(=O)n2C(C)C [AZD3965],growth in media with lactate as the sole carbon source,"MCT1 (F360C); MCT1 F360C, AZD3965 10 μM, 0.5% lactate (S5 Fig)",inhibited growth
same,"growth curve reading, single replicate","MCT1 (F360C); T0, time 0",0.0403
same,"growth curve reading, single replicate","MCT1 (F360C); T1, time 19",0.1093 and 0.1204 and 0.1196 and 0.1290
same,"growth curve reading, single replicate","MCT1 (F360C); T2, time 21",0.1288 and 0.1364 and 0.1335
same,"growth curve reading, single replicate","MCT1 (F360C); T3, time 25",0.1550 and 0.1804 and 0.1853 and 0.2001
same,"growth curve reading, single replicate","MCT1 (F360C); T4, time 27.5",0.1660 and 0.1913 and 0.2008 and 0.2152
same,"growth curve reading, single replicate","MCT1 (F360C); T5, time 43",0.1991 and 0.2285 and 0.2378 and 0.2578
same,"growth curve reading, single replicate","MCT1 (F360C); T6, time 45.5",0.2030 and 0.2318 and 0.2431 and 0.2629
same,"growth curve reading, single replicate","MCT1 (F360C); T7, time 48",0.2036 and 0.2334 and 0.2458 and 0.2644
same,"growth curve reading, mean of 4 replicates",MCT1 (F360C); time 0,0.0403
same,"growth curve reading, mean of 4 replicates",MCT1 (F360C); time 19,0.1196
same,"growth curve reading, mean of 4 replicates",MCT1 (F360C); time 21,0.1338
same,"growth curve reading, mean of 4 replicates",MCT1 (F360C); time 25,0.1802
same,"growth curve reading, mean of 4 replicates",MCT1 (F360C); time 27.5,0.1933
same,"growth curve reading, mean of 4 replicates",MCT1 (F360C); time 43,0.2308
same,"growth curve reading, mean of 4 replicates",MCT1 (F360C); time 45.5,0.2352
same,"growth curve reading, mean of 4 replicates",MCT1 (F360C); time 48,0.2368
same,growth in media with lactate as the sole carbon source,"MCT1 (wildtype); wildtype MCT1, AZD3965 10 μM, 0.5% lactate (S5 Fig)",inhibited growth
same,"growth curve reading, single replicate","MCT1 (wildtype); Δjen1 MCT1, T0, time 0",0.0402
same,"growth curve reading, single replicate","MCT1 (wildtype); Δjen1 MCT1, T1, time 19",0.1316 and 0.1252 and 0.1281 and 0.1266
same,"growth curve reading, single replicate","MCT1 (wildtype); Δjen1 MCT1, T2, time 21",0.1442 and 0.1394 and 0.1417 and 0.1396
same,"growth curve reading, single replicate","MCT1 (wildtype); Δjen1 MCT1, T3, time 25",0.1656 and 0.1622 and 0.1633 and 0.1608
same,"growth curve reading, single replicate","MCT1 (wildtype); Δjen1 MCT1, T4, time 27.5",0.1778 and 0.1729 and 0.1762
same,"growth curve reading, single replicate","MCT1 (wildtype); Δjen1 MCT1, T5, time 43",0.2083 and 0.2030 and 0.2026 and 0.2041
same,"growth curve reading, single replicate","MCT1 (wildtype); Δjen1 MCT1, T6, time 45.5",0.2171 and 0.2098 and 0.2095 and 0.2126
same,"growth curve reading, single replicate","MCT1 (wildtype); Δjen1 MCT1, T7, time 48",0.2154 and 0.2089 and 0.2128 and 0.2107
same,"growth curve reading, mean of 4 replicates","MCT1 (wildtype); Δjen1 MCT1, time 0",0.0402
same,"growth curve reading, mean of 4 replicates","MCT1 (wildtype); Δjen1 MCT1, time 19",0.1279
same,"growth curve reading, mean of 4 replicates","MCT1 (wildtype); Δjen1 MCT1, time 21",0.1412
same,"growth curve reading, mean of 4 replicates","MCT1 (wildtype); Δjen1 MCT1, time 25",0.1630
same,"growth curve reading, mean of 4 replicates","MCT1 (wildtype); Δjen1 MCT1, time 27.5",0.1750
same,"growth curve reading, mean of 4 replicates","MCT1 (wildtype); Δjen1 MCT1, time 43",0.2045
same,"growth curve reading, mean of 4 replicates","MCT1 (wildtype); Δjen1 MCT1, time 45.5",0.2122
same,"growth curve reading, mean of 4 replicates","MCT1 (wildtype); Δjen1 MCT1, time 48",0.2120
same,tolerability in phase-1 clinical trial,[1],relatively well tolerated
same,"growth curve reading, single replicate","Δjen1 EV; T1, time 19",0.1091 and 0.1160 and 0.1215 and 0.1310
same,"growth curve reading, single replicate","Δjen1 EV; T2, time 21",0.1392 and 0.1432 and 0.1501
same,"growth curve reading, single replicate","Δjen1 EV; T3, time 25",0.1257 and 0.1403 and 0.1504
same,"growth curve reading, single replicate","Δjen1 EV; T4, time 27.5",0.1322 and 0.1452 and 0.1564 and 0.1709
same,"growth curve reading, single replicate","Δjen1 EV; T5, time 43",0.1444 and 0.1533 and 0.1681 and 0.1884
same,"growth curve reading, single replicate","Δjen1 EV; T6, time 45.5",0.1453 and 0.1535 and 0.1657 and 0.1862
same,"growth curve reading, single replicate","Δjen1 EV; T7, time 48",0.1464 and 0.1540 and 0.1668 and 0.1877
same,"growth curve reading, mean of 4 replicates",Δjen1 EV; time 19,0.1194
same,"growth curve reading, mean of 4 replicates",Δjen1 EV; time 21,0.1435
same,"growth curve reading, mean of 4 replicates",Δjen1 EV; time 25,0.1449
same,"growth curve reading, mean of 4 replicates",Δjen1 EV; time 27.5,0.1512
same,"growth curve reading, mean of 4 replicates",Δjen1 EV; time 43,0.1636
same,"growth curve reading, mean of 4 replicates",Δjen1 EV; time 45.5,0.1627
same,"growth curve reading, mean of 4 replicates",Δjen1 EV; time 48,0.1637
same,IC50,MCT1; read-out: previously reported IC50 value,5.12 nM
same,OD600,"SAWy710 (EV); Condition non, Replicate1, EV strain SAWy710, 10 µM AZD",0.1411 and 0.1378 and 0.134 and 0.1369 and 0.1383 and 0.1317 and 0.135 and 0.1363 and 0.1403 and 0.1392 and 0.1365 and 0.1389 and 0.1394 and 0.149
same,OD600,"SAWy710 (EV); Condition non, Replicate2, EV strain SAWy710, 10 µM AZD",0.1384 and 0.1406 and 0.1366 and 0.135 and 0.1021 and 0.1315 and 0.1407 and 0.1329 and 0.1336 and 0.1393 and 0.1343 and 0.134 and 0.138 and 0.1378 and 0.1431
same,OD600,"SAWy710 (EV); Condition perm, Replicate1, EV strain SAWy710, 10 µM AZD",0.7718 and 0.7777 and 0.7776 and 0.7734 and 0.7269 and 0.7398 and 0.7671 and 0.7655 and 0.7645 and 0.774 and 0.768 and 0.7629 and 0.759 and 0.7698 and 0.7556 and 0.7591
same,OD600,"SAWy710 (EV); Condition perm, Replicate2, EV strain SAWy710, 10 µM AZD",0.1774 and 0.1728 and 0.1654 and 0.1606 and 0.1374 and 0.1596 and 0.1712 and 0.1673 and 0.1713 and 0.168 and 0.1743 and 0.17 and 0.1727 and 0.1704 and 0.1842
Cc1ccccc1-c1cc(N2CCN(C)CC2)ncc1N(C)C(=O)C(C)(C)c1cc(C(F)(F)F)cc(C(F)(F)F)c1 [Netupitant],Ki,[2],0.95 nM
same,OffScreen_percentage,parent strain (SAWy518) [3],103.271 percentage
same,Offscreen_18hr,parent strain (SAWy518) [3],0.8334
same,Offscreen_24hr,parent strain (SAWy518) [3],0.9137
same,Offscreen_42hr,parent strain (SAWy518) [3],0.9839
same,Read_percentage,parent strain (SAWy518) [3],103.271 percentage
same,viability at 10 µM,parent strain (SAWy518) [4],103%
same,Ki,[5],0.95 nM
same,Ki,[6],0.95 nM
CCOC(=O)Oc1c(OC)cc(C(=O)O[C@@H]2C[C@@H]3CN4CCc5c([nH]c6cc(OC)ccc56)[C@H]4C[C@@H]3[C@H](C(=O)OC)[C@H]2OC)cc1OC [Syrosingopine],IC50,MCT4 [7],40 nM
same,in vitro cancer cell growth,cancer cell growth,inhibit in vitro cancer cell growth
same,OffScreen_percentage,parent strain (SAWy518) [3],92.2553 percentage
same,Offscreen_18hr,parent strain (SAWy518) [3],0.7445
same,Offscreen_24hr,parent strain (SAWy518) [3],0.7958
same,Offscreen_42hr,parent strain (SAWy518) [3],0.9268
same,Read_percentage,parent strain (SAWy518) [3],92.2553
same,tumor growth in in vivo cancer models,tumor growth; alone versus paired with metformin,only effective in reducing tumor growth when paired with the mitochondrial oxidative phosphorylation inhibitor metformin
same,dose required to inhibit tumor growth in mice,tumor growth; mice,7.5 mg/kg
same,IC50,"MCT1; HAP1 cells, library annotation, read-out: IC50 MCT1",2500 nM
same,viability at 10 µM,parent strain (SAWy518) [4],92.3%
same,IC50,MCT4 [8],40 nM
YM155,IC50,survivin [9],0.54 nM
same,IC50,survivin [10],0.54 nM
same,OffScreen_percentage,parent strain (SAWy518) [3],103.73 percentage
same,Offscreen_18hr,parent strain (SAWy518) [3],0.8371
same,Offscreen_24hr,parent strain (SAWy518) [3],0.9154
same,Offscreen_42hr,parent strain (SAWy518) [3],0.9694
same,Read_percentage,parent strain (SAWy518) [3],103.73
same,IC50,survivin [11],0.54 nM

# Reference: publication PMC11637378, “Optogenetic screening of MCT1 activity implicates a cluster of non-steroidal anti-inflammatory drugs (NSAIDs) as inhibitors of lactate transport” (PLOS ONE, 2024)
